PMC10535268, “Design, Synthesis, and Evaluation of Novel Indole Hybrid Chalcones and Their Antiproliferative and Antioxidant Activity” (Molecules, 2023)

What was measured:
[1] = Ferric reducing antioxidant power (FRAP); conditions: sample 1 mM, 30 min, gallic acid equivalents, mean (±SD), triplicate
Text: (§1) Table 3 Antioxidant activity.

MCF-7 = experiment: MTT antiproliferative assay, MCF-7; format: cell-based, human; conditions: MCF-7, 72 h incubation, mean ± SD of three independent experiments
HCT116 = experiment: MTT antiproliferative assay, HCT116; format: cell-based, human; conditions: HCT116, 72 h incubation, mean ± SD of three independent experiments
MCF-10A = experiment: MTT cytotoxicity assay, non-cancer MCF-10A; format: cell-based, human; conditions: 72 h incubation, mean ± SD of three independent experiments
[2] = DPPH radical scavenging activity; conditions: sample 1 mM, 30 min, gallic acid equivalents, mean (±SD), triplicate
Jurkat = experiment: MTT antiproliferative assay, Jurkat; format: cell-based, human; conditions: 72 h incubation, mean ± SD of three independent experiments
[3] = ABTS radical scavenging activity; conditions: sample 1 mM, 30 min, gallic acid equivalents, mean (±SD), triplicate
Text: as §1

Hela = experiment: MTT antiproliferative assay, HeLa; format: cell-based, human; conditions: 72 h incubation, mean ± SD of three independent experiments
Protocol: Table 2 IC50 (μM) ± SD of tested compounds in different cell lines after 72 h incubation. | column: Cell Line, IC50 (µM) ± SD / Hela

MDA-MB-231 = experiment: MTT antiproliferative assay, MDA-MB-231; format: cell-based, human; conditions: MDA-MB-231, 72 h incubation, mean ± SD of three independent experiments
breast cancer cells = conditions: flow cytometry, Western blot, fluorescence microscopy; cited from earlier work
[4] = test system: normal human liver cell line (L02); set-up: method as in Lagu et al. 19; conditions: ref Lagu et al. 19; cited from earlier work
[5] = set-up: method as in Lagu et al. 19; conditions: compared to standard drugs; ref Lagu et al. 19; cited from earlier work
Bj-5ta = experiment: MTT cytotoxicity assay, non-cancer Bj-5ta; format: cell-based, human; conditions: 72 h incubation, mean ± SD of three independent experiments; for IC50: Homo sapiens

IC50 (HCT116) [µM]	IC50 (MCF-7; Homo sapiens, MCF7, 72 h) [µM]	IC50 (HCT116; Homo sapiens, HCT-116, 72 h) [µM]	IC50 (Jurkat; Homo sapiens) [µM]	IC50 (Hela; Homo sapiens, HeLa, 72 h) [µM]	IC50 (MDA-MB-231; Homo sapiens) [µM]	melting point [°C]	Structure (SMILES)	FRAP [1]	DPPH [2]	ABTS [3]	IC50 (MCF-10A; Homo sapiens, MCF-10A, 72 h) [µM]	IC50 (Bj-5ta) [µM]	also measured
–	52.7 ± 2.6	34.5 ± 0.7	7.3 ± 0.1	34.6 ± 0.3	82.2 ± 3.1	182 to 184	COn1cc(/C=C/C(=O)c2ccc(O)cc2)c2ccccc21 [14c, (2E)-1-(4-hydroxyphenyl)-3-(1-methoxy-1H-indol-3-yl)prop-2-en-1-one]	42.0 (±2.0) µmol GAE/mmol	21.1 (±5.8) µmol GAE/mmol	75.9 (±5.3) µmol GAE/mmol	59 ± 0.2	76.4 ± 1.7	–
18.2 ± 2.9	> 100	18.5	8 ± 1.4	> 100	> 100	206 to 209	COn1cc(C(=O)/C=C/c2ccc(O)c(O)c2)c2ccccc21 [18c, (2E)-3-(3,4-dihydroxyphenyl)-1-(1-methoxy-1H-indol-3-yl)prop-2-en-1-one]	432.0 (±21.4) µmol GAE/mmol	551.1 (±14.9) µmol GAE/mmol	298.1 (±21.0) µmol GAE/mmol	> 100	> 100	IC50 (µM) ± SD, MCF-10A (MCF-10A): no toxicity; IC50 (µM) ± SD, Bj-5ta (Bj-5ta): no toxicity
35.3 ± 0.6	43.1 ± 1.6	62.7 ± 2.9	34 ± 0.3	25.5 ± 1.6	45.3 ± 0.5	200 to 203	COc1cc(/C=C/C(=O)c2c[nH]c3ccccc23)ccc1O [19a, (2E)-3-(4-hydroxy-3-methoxyphenyl)-1-(1H-indol-3-yl)prop-2-en-1-one]	307.2 (±11.9) µmol GAE/mmol	223.5 (±11.2) µmol GAE/mmol	564.7 (±74.5) µmol GAE/mmol	24.7 ± 2.8	66.6 ± 0.1	IC50 (MCF-10A): 40.2 ± 1.2 µM; IC50 (Hela): 41.4 ± 2.5 µM

Further lines, the compound ahead of its results:

Structure (SMILES)	IC50 (HCT116) [µM]	IC50 (MCF-7; Homo sapiens, MCF7, 72 h) [µM]	IC50 (HCT116; Homo sapiens, HCT-116, 72 h) [µM]	IC50 (Jurkat; Homo sapiens) [µM]	IC50 (Hela; Homo sapiens, HeLa, 72 h) [µM]	IC50 (MDA-MB-231; Homo sapiens) [µM]	melting point [°C]	FRAP [1]	DPPH [2]	ABTS [3]	IC50 (MCF-10A; Homo sapiens, MCF-10A, 72 h) [µM]	IC50 (Bj-5ta) [µM]	also measured
CCCOc1[nH]c2ccccc2c1/C=C/C(=O)c1ccccc1F [11f, (2E)-1-(2″-Fluorophenyl)-3-(2′-propoxy-1′H-indol-3′-yl)prop-2-en-1-one]	34.4 ± 1.1	–	–	–	–	–	–	183.5 (±0.9) µmol GAE/mmol	227.3 (±11.0) µmol GAE/mmol	175.1 (±10.4) µmol GAE/mmol	–	–	IC50 (MCF-7): 37.3 ± 1.5 µM; IC50 (MCF-10A): > 100 µM; IC50 (µM) ± SD, MCF-10A (MCF-10A): minimal effect; IC50 (Jurkat): 37.7 ± 1.1 µM; IC50 (Hela): 45.3 ± 0.7 µM; IC50 (MDA-MB-231): 34 ± 3 µM; mode of cell death (breast cancer cells): induce cell cycle arrest in the G2/M phase and apoptosis
O=C(/C=C/c1c[nH]c2ccccc12)c1ccc(C(F)(F)F)cc1 [12a, (2E)-3-(1H-indol-3-yl)-1-(4-trifluoromethylphenyl) prop-2-en-1-one]	–	43.4	59.1 ± 1.1	> 100	68.1 ± 3.3	> 100	195 to 197	–	–	–	> 100	> 100	IC50 (MCF-7): 43.3 ± 0.6 µM; cytotoxicity on normal human liver cell line (L02) [4]: without showing cytotoxicity; antimicrobial activity [5]: greatest antimicrobial activity
Cn1cc(/C=C/C(=O)c2ccccc2O)c2ccccc21 [13b, (2E)-1-(2-hydroxyphenyl)-3-(1-methyl-1H-indol-3-yl)prop-2-en-1-one]	–	29.7 ± 2.3	34.7 ± 0.2	> 100	42.8 ± 2.5	82 ± 3.2	205 to 207	41.2 (±0.7) µmol GAE/mmol	7.6 (±3.8) µmol GAE/mmol	116.8 (±5.8) µmol GAE/mmol	> 100	> 100	–
COn1cc(/C=C/C(=O)c2ccccc2O)c2ccccc21 [13c, (2E)-1-(2-hydroxyphenyl)-3-(1-methoxy-1H-indol-3-yl)prop-2-en-1-one]	–	53.4 ± 2.5	54 ± 2.2	42 ± 1.8	73.9 ± 3.4	> 100	139 to 140	43.4 (±1.8) µmol GAE/mmol	30.3 (±15.4) µmol GAE/mmol	214.6 (±28.4) µmol GAE/mmol	> 100	> 100	–
O=C(/C=C/c1c[nH]c2ccccc12)c1ccc(O)cc1 [14a, (2E)-1-(4-hydroxyphenyl)-3-(1H-indol-3-yl)prop-2-en-1-one]	–	42.2 ± 0.7	36.8 ± 0.5	33.9 ± 2.5	39.9 ± 2.6	66 ± 2.5	218	105.5 (±3.4) µmol GAE/mmol	12.3 (±2.3) µmol GAE/mmol	194.8 (±21.4) µmol GAE/mmol	51.5 ± 1.7	61 ± 0.6	–
Cn1cc(/C=C/C(=O)c2ccc(O)cc2)c2ccccc21 [14b, (2E)-1-(4-hydroxyphenyl)-3-(1-methyl-1H-indol-3-yl)prop-2-en-1-one]	–	82.3 ± 1.8	49.3 ± 1.3	> 100	93 ± 2.6	> 100	244	114.3 (±4.2) µmol GAE/mmol	7.3 (±3.1) µmol GAE/mmol	84.6 (±2.7) µmol GAE/mmol	54 ± 2.1	> 100	–
